The record followed here is paper PMC2248166, “Quantitative peptide binding motifs for 19 human and mouse MHC class I molecules derived using positional scanning combinatorial peptide libraries” (Immunome Research, 2008).

SMILES strings stand for the structures. Where a SMILES comes first, the peptide text is derived from it.

Some targets named below: HLA B*1503 (Homo sapiens, UniProt P01889, A329T/A93T/A95T/C349S/D201E/D98Y/E187L/E204Q/K202T/N87E/Q94N/R155S/R180L/S121R/S35A/V306I/V36M/Y140S/Y91S); HLA A*3201 (Homo sapiens, UniProt P04439, A270S/D101S/D185E/E176V/E277Q/F133L/G103R/G107R/G231S/H175R/I121M/I218V/I322F/K168Q/L105A/L300P/L318F/M331R/P208A/P217A/Q94H/R106L/R138Q/S129P/T104I/T323A/T345S/V100E/V321M/V358M); HLA A*3001 (Homo sapiens, UniProt P04439, D140H/D185E/E176W/F33S/G80R/H175R/K168Q/R138E/R41S); HLA B*1501 (Homo sapiens, UniProt P01889, A329T/A93T/A95T/C349S/D201E/D98Y/E187L/E204Q/E69M/E70A/K202T/N87E/Q94N/R155S/R180W/S121R/S35A/S48A/V306I/V36M/Y140S/Y91S); HLA B*0801 (Homo sapiens, UniProt P01889, A93T/A95T/D138N/E176V/E187T/K202T/Q94N/R180D/S35A/V36M/Y33D/Y91F).

Assay in all cases: biochemical
Common to all, as to format: binding

For orientation: IC50 means the concentration needed to halve the response being measured.

HLA A*3001, sequence (P04439 25-365 limits assumed, stated change not applied): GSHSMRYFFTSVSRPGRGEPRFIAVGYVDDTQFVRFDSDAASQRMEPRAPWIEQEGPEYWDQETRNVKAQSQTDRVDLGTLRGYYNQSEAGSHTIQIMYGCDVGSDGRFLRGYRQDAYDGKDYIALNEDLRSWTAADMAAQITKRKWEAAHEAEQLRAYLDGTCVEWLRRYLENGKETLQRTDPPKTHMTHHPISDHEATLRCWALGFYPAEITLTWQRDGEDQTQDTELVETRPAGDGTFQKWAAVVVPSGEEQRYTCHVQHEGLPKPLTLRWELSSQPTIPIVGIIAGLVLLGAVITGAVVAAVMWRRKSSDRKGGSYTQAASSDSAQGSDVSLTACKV

Turning to `CC[C@H](C)[C@H](N)C(=O)N[C@H](C(=O)N[C@@H](CC(C)C)C(=O)N[C@H](C(=O)N[C@@H](CC(N)=O)C(=O)N[C@H](C(=O)N[C@H](C(=O)N[C@@H](CC(N)=O)C(=O)N[C@H](C(=O)O)[C@@H](C)CC)C(C)C)C(C)C)[C@@H](C)O)[C@@H](C)O` [3102.0320] (H-ITLTNVVNI-OH), the concentration for half-maximal inhibition (IC50) at HLA B*1503 amounted to 22 nM; at HLA A*3201, 77 nM; against HLA A*3001, 35 nM; against HLA B*1501 it was 12 nM. For `CC[C@H](C)[C@H](NC(=O)[C@H](CCCCN)NC(=O)[C@H](CC(N)=O)NC(=O)[C@H](CO)NC(=O)[C@H](Cc1ccc(O)cc1)NC(=O)[C@H](CCCCN)NC(=O)[C@H](CC(C)C)NC(=O)[C@@H](NC(=O)[C@@H](N)CCCCN)[C@@H](C)O)C(=O)O` [3102.0326] (H-KTLKYSNKI-OH), the IC50 at HLA A*3201 is 1.9 nM; against HLA A*3001, 38 nM; against HLA B*1501, 124 nM.

As for `CC[C@H](C)[C@H](NC(=O)[C@H](CC(N)=O)NC(=O)[C@H](Cc1ccccc1)NC(=O)[C@H](CCSC)NC(=O)[C@@H](N)CC(N)=O)C(=O)N[C@@H](CO)C(=O)N[C@@H](Cc1ccccc1)C(=O)N[C@@H](CCCNC(=N)N)C(=O)N[C@@H](Cc1ccccc1)C(=O)O` [3102.0348] (H-NMFNISFRF-OH), the IC50 came out at 19 nM against HLA B*1503, 3.6 nM at HLA A*3201, 27 nM against HLA A*3001 and 43 nM at HLA B*1501. Take `CC[C@H](C)[C@H](N)C(=O)N[C@@H](C)C(=O)N[C@@H](CO)C(=O)N[C@H](C(=O)N[C@@H](CC(C)C)C(=O)N[C@H](C(=O)N[C@H](C(=O)N[C@H](C(=O)N[C@H](C(=O)O)[C@@H](C)CC)[C@@H](C)O)C(C)C)[C@@H](C)CC)[C@@H](C)O` [3102.0358] (H-IASTLIVTI-OH): the half-maximal inhibitory concentration (IC50) against HLA A*3201 turned out to be 74 nM; at HLA A*3001 it was 10 nM; at HLA B*1501, 156 nM. For `CC[C@H](C)[C@H](NC(=O)[C@@H](NC(=O)[C@@H](NC(=O)[C@@H]1CCCN1C(=O)[C@H](CCCNC(=N)N)NC(=O)[C@H](Cc1ccccc1)NC(=O)[C@H](Cc1ccccc1)NC(=O)[C@@H](NC(=O)[C@@H](N)CCCCN)[C@@H](C)CC)[C@@H](C)O)[C@@H](C)O)C(=O)O` [3102.0470] (H-KIFFRPTTI-OH), in that order: 1.1 nM, 17 nM and 93 nM. In turn, `CC(C)C[C@H](NC(=O)[C@H](CO)NC(=O)[C@H](Cc1ccccc1)NC(=O)[C@@H]1CCCN1C(=O)[C@H](CCCNC(=N)N)NC(=O)[C@H](CCCNC(=N)N)NC(=O)[C@H](CC(C)C)NC(=O)[C@H](CC(C)C)NC(=O)[C@@H](N)CCCCN)C(=O)O` [3102.0529] (H-KLLRRPFSL-OH) returned an IC50 on HLA B*0801 of 0.36 nM.

On HLA B*0801, `CC(C)C[C@H](NC(=O)[C@H](CCCCN)NC(=O)[C@H](CCCNC(=N)N)NC(=O)[C@@H](N)CCCNC(=N)N)C(=O)N[C@@H](CC(C)C)C(=O)N[C@@H](CCCNC(=N)N)C(=O)N[C@@H](CCCNC(=N)N)C(=O)N1CCC[C@H]1C(=O)N[C@@H](Cc1ccccc1)C(=O)O` [3102.0530] (H-RRKLLRRPF-OH) yielded an IC50 of 11 nM. Same read-out and setting: the value for `CC[C@H](C)[C@H](NC(=O)[C@@H](NC(=O)[C@H](CC(N)=O)NC(=O)[C@H](CCCCN)NC(=O)[C@H](CCCNC(=N)N)NC(=O)[C@@H](NC(=O)[C@H](Cc1ccccc1)NC(=O)[C@H](CC(C)C)NC(=O)[C@@H](N)Cc1ccc(O)cc1)[C@@H](C)CC)C(C)C)C(=O)O` [3102.0531] (H-YLFIRKNVI-OH) was 0.71 nM; that for `CC[C@H](C)[C@H](NC(=O)CNC(=O)[C@@H]1CCCN1C(=O)[C@@H](N)CO)C(=O)N[C@@H](CCCNC(=N)N)C(=O)N1CCC[C@H]1C(=O)N[C@@H](CCCNC(=N)N)C(=O)N[C@@H](Cc1ccccc1)C(=O)N[C@@H](CC(C)C)C(=O)O` [3102.0532] (H-SPGIRPRFL-OH) was 56 nM. Compound `CC[C@H](C)[C@H](NC(=O)[C@@H](N)CO)C(=O)N[C@@H](CCCCN)C(=O)N[C@@H](CO)C(=O)N[C@@H](CCCCN)C(=O)N[C@@H](CO)C(=O)N[C@@H](CCCNC(=N)N)C(=O)N[C@@H](CCCNC(=N)N)C(=O)N[C@@H](CC(C)C)C(=O)O` [3102.0534] (H-SIKSKSRRL-OH) showed an IC50 against HLA B*0801 of 30 nM. Same read-out and setting: the value for `CC[C@H](C)[C@H](NC(=O)[C@H](CCCCN)NC(=O)[C@@H](NC(=O)[C@H](CCCNC(=N)N)NC(=O)[C@H](CC(C)C)NC(=O)[C@H](CC(N)=O)NC(=O)[C@H](CC(C)C)NC(=O)[C@@H](N)CO)[C@@H](C)CC)C(=O)N[C@@H](CC(C)C)C(=O)O` [3102.0536] (H-SLNLRIKIL-OH) was 92 nM. Still for that read-out and setting: under `CC[C@H](C)[C@H](N)C(=O)N[C@@H](CC(C)C)C(=O)N[C@@H](CCCNC(=N)N)C(=O)N[C@@H](CCCCN)C(=O)N[C@H](C(=O)N[C@@H](Cc1ccccc1)C(=O)N[C@@H](Cc1ccc(O)cc1)C(=O)N[C@@H](CO)C(=O)N[C@H](C(=O)O)C(C)C)[C@@H](C)CC` [3102.0538] (H-ILRKIFYSV-OH) stands 0.1 nM.

On to `CC[C@H](C)[C@H](NC(=O)[C@H](Cc1ccc(O)cc1)NC(=O)[C@H](CCSC)NC(=O)[C@H](CC(C)C)NC(=O)[C@@H](N)CCC(=O)O)C(=O)N[C@@H](Cc1ccccc1)C(=O)N[C@@H](C)C(=O)N[C@@H](C)C(=O)N[C@@H](CC(C)C)C(=O)O` [3102.0539] (H-ELMYIFAAL-OH), for which the IC50 at HLA B*0801 came out at 30 nM. The same measure, in the same setting: under `CC[C@H](C)[C@H](NC(=O)[C@H](CO)NC(=O)[C@H](CC(C)C)NC(=O)[C@H](CCSC)NC(=O)[C@H](CO)NC(=O)[C@H](CCCNC(=N)N)NC(=O)[C@@H]1CCCN1C(=O)[C@@H](N)Cc1ccccc1)C(=O)N[C@@H](Cc1ccccc1)C(=O)O` [3102.0543] (H-FPRSMLSIF-OH) stands 9.9 nM; under `CSCC[C@H](N)C(=O)N[C@@H](CCCNC(=N)N)C(=O)N[C@@H](Cc1ccccc1)C(=O)N[C@@H](CCCCN)C(=O)N[C@@H](CCCCN)C(=O)N[C@@H](CCC(=O)O)C(=O)N[C@@H](CO)C(=O)N[C@@H](CO)C(=O)N[C@@H](CC(C)C)C(=O)O` [3102.0545] (H-MRFKKESSL-OH), 3.4 nM; under `CC[C@H](C)[C@H](NC(=O)[C@H](CO)NC(=O)[C@H](CC(C)C)NC(=O)[C@H](CC(C)C)NC(=O)[C@H](CCCNC(=N)N)NC(=O)[C@H](CCSC)NC(=O)[C@H](CCC(=O)O)NC(=O)[C@H](C)NC(=O)[C@@H](N)CO)C(=O)O` [3102.0547] (H-SAEMRLLSI-OH), 21 nM. Same read-out and setting: the value for `CC(C)C[C@H](NC(=O)[C@H](CC(N)=O)NC(=O)[C@H](Cc1ccc(O)cc1)NC(=O)[C@H](Cc1ccccc1)NC(=O)[C@H](Cc1c[nH]cn1)NC(=O)[C@H](CC(=O)O)NC(=O)[C@H](CCCNC(=N)N)NC(=O)[C@H](CC(C)C)NC(=O)[C@@H](N)Cc1ccc(O)cc1)C(=O)O` [3102.0548] (H-YLRDHFYNL-OH) was 8.3 nM. On the same count and under the same terms, under `CC[C@H](C)[C@H](NC(=O)CNC(=O)[C@H](Cc1c[nH]cn1)NC(=O)[C@H](CCCNC(=N)N)NC(=O)[C@H](CCC(N)=O)NC(=O)[C@H](CC(C)C)NC(=O)[C@H](CCCCN)NC(=O)[C@@H](N)CO)C(=O)N[C@@H](CC(C)C)C(=O)O` [3102.0549] (H-SKLQRHGIL-OH) stands 16 nM; under `CC[C@H](C)[C@H](NC(=O)[C@@H](N)CO)C(=O)N[C@@H](Cc1c[nH]cn1)C(=O)N[C@@H](CCC(=O)O)C(=O)N[C@@H](CCCCN)C(=O)N[C@@H](Cc1ccccc1)C(=O)N[C@@H](Cc1c[nH]c2ccccc12)C(=O)N1CCC[C@H]1C(=O)N[C@@H](CC(C)C)C(=O)O` [3102.0550] (H-SIHEKFWPL-OH), 1.4 nM; under `CC[C@H](C)[C@H](NC(=O)[C@H](Cc1ccc(O)cc1)NC(=O)[C@H](C)NC(=O)[C@@H]1CCCN1C(=O)[C@@H](N)CCSC)C(=O)N[C@@H](CCCNC(=N)N)C(=O)N[C@@H](CC(N)=O)C(=O)N[C@H](C(=O)N[C@@H](CC(C)C)C(=O)O)[C@@H](C)O` [3102.0553], 1.4 nM. At HLA B*0801, `CC(C)[C@H](NC(=O)[C@H](Cc1ccccc1)NC(=O)[C@H](CS)NC(=O)[C@@H](NC(=O)[C@H](CCCCN)NC(=O)[C@H](CCCCN)NC(=O)[C@H](CCCCN)NC(=O)[C@H](CO)NC(=O)[C@@H](N)Cc1ccccc1)C(C)C)C(=O)O` [3102.0556] (H-FSKKKVCFV-OH) had an IC50 of 6 nM. `CSCC[C@H](NC(=O)[C@H](C)NC(=O)[C@@H](NC(=O)[C@@H](N)C(C)C)C(C)C)C(=O)N[C@@H](CCCNC(=N)N)C(=O)N[C@@H](Cc1c[nH]cn1)C(=O)N[C@@H](CC(C)C)C(=O)N[C@@H](CO)C(=O)N[C@@H](CC(C)C)C(=O)O` [3102.0557] (H-VVAMRHLSL-OH) displayed an IC50 against HLA B*0801 of 0.98 nM. `CC[C@H](C)[C@H](NC(=O)[C@H](CCCNC(=N)N)NC(=O)[C@H](CCCCN)NC(=O)[C@H](CCSC)NC(=O)[C@@H](NC(=O)[C@@H](N)CC(N)=O)C(C)C)C(=O)N[C@@H](CC(N)=O)C(=O)N[C@@H](CS)C(=O)N[C@@H](Cc1ccccc1)C(=O)O` [3102.0558] (H-NVMKRINCF-OH): the IC50 against HLA B*0801 was 20 nM.

On to `CSCC[C@H](NC(=O)[C@@H](N)Cc1c[nH]cn1)C(=O)N[C@@H](C)C(=O)N[C@@H](Cc1ccc(O)cc1)C(=O)N[C@@H](CO)C(=O)N[C@@H](Cc1ccccc1)C(=O)N[C@@H](CCC(N)=O)C(=O)N[C@H](C(=O)N[C@@H](Cc1ccccc1)C(=O)O)[C@@H](C)O` [3102.1331] (H-HMAYSFQTF-OH), for which the IC50 was determined as 0.28 nM against HLA B*1503, 16 nM at HLA A*3201 and 0.25 nM at HLA B*1501.
